This note sets out measurements from US11472805B2, “Tricyclic compounds and their use as phosphodiesterase inhibitors” (Pfizer Inc., priority 2015, dated 2022).

Type in all cases: biochemical
One experiment concerns the target Human PDE4A3 (Homo sapiens (Human), UniProt P27815). Nature of the experiment: PDE4A3 Scintillation Proximity Assay (SPA), inhibition of enzyme activity. The note with it: Table 9, geometric mean of 2-9 determinations unless otherwise indicated, read-out: Human PDE4A FL. The method, then: (§1) The PDE4A, PDE4B, PDE4C and PDE4D binding affinity for the compounds of the present invention was determined utilizing the following biological assay(s):
(§2) The recombinant Bacmid was isolated and used to transfect insect cells to generate a viral stock. To generate cell paste for purification, insect cells were infected with the virus stock and cells were harvested 72 hours after infection. Insect cell paste was lysed and after centrifugation, the supernatant was batch bound to Ni-NTA agarose (GE Healthcare) and eluted with 250 mM imidazole. This eluate was diluted with FLAG buffer (50 mM Tris HCL pH 7.5, 100 mM NaCl, 5% Glycerol, 1 mM TCEP with protease inhibitors) and batch bound to ant-FLAG M2 agarose (Sigma) overnight at 4° C. The agarose was packed into a column, washed with buffer and eluted with buffer containing elute using 250 ug/ml Flag-peptide. Fractions were analyzed using SDS-PAGE Coomassie blue staining and pooled based on purity. Pooled fractions were chromatographed on a S200 120 ml column (GE Healthcare) in 50 mM Tris HCL pH 7.5, 150 mM NaCl, 10% Glycerol, 2 mM TCEP with protease inhibitors. PDE4A3 fractions were analyzed by SDS-PAGE Coomassie blue staining, pooled based on purity, dialyzed against 50 mM Tris HCL pH 7.5, 100 mM NaCl, 20% Glycerol, 2 mM TCEP, frozen and stored at −80° C.
(§3) The PDE4A3, PDE4B1, PDE4C1 and PDE4D3 assays use the Scintillation Proximity Assay (SPA) technology to measure the inhibition of human recombinant PDE4A1, PDE4B3, PDE4C1, and PDE4D3 enzyme activity by compounds in vitro. The PDE4A1, PDE4B3, PDE4C1, and PDE4D3 assays are run in parallel using identical parameters, except for the concentration of enzyme ([…]). The assays are performed in a 384-well format with 50 uL assay buffer (50 mM TRIS pH7.5; 1.3 mM MgCl2; 0.01% Brij) containing enough PDE4A3, PDE4B1, PDE4C1, and PDE4D to convert ˜20% of substrate (1 μM cAMP consisting of 20 nM 3H-cAMP+[…] cold cAMP) and a range of inhibitors. Reactions are incubated for 30 min at 25° C. The addition of 20 uL of 8 mg/ml yitrium silicate SPA beads (Perkin Elmer) stops the reaction. The plates are sealed (TopSeal, Perkin Elmer) and the beads are allowed to settle for 8 hrs, after which they are read on the Trilux Microbeta overnight.

In the next experiment the target is Human PDE4B1 (Homo sapiens (Human), UniProt Q07343, S133E/S654A/S659A/S661A). Briefly: PDE4B1 Scintillation Proximity Assay (SPA), inhibition of enzyme activity. Conditions: Table 9, geometric mean of 2-9 determinations unless otherwise indicated, read-out: Human PDE4B FL. The method, then: as §1
Human PDE4B1, sequence (Q07343 122-736 S133E/S654A/S659A/S661A): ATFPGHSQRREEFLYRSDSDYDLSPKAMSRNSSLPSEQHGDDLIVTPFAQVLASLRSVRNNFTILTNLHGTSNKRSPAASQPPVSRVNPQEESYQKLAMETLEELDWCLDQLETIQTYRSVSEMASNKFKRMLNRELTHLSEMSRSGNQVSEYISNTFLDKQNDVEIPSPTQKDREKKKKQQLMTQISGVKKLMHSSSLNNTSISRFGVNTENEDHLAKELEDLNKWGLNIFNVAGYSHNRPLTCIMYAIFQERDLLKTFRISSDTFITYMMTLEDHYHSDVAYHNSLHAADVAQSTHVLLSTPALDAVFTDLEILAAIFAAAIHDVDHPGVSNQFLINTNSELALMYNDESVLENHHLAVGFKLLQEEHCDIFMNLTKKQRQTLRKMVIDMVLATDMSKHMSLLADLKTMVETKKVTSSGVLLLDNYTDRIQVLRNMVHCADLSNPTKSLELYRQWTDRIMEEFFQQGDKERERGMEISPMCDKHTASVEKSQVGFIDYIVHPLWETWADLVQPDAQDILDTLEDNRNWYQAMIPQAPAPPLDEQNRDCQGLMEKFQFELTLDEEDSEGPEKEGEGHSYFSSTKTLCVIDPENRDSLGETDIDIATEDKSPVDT
The recombinant Bacmid was isolated and used to transfect insect cells to generate a viral stock. To generate cell paste for purification, insect cells were infected with the virus stock and cells were harvested 72 hours after infection as described in Seeger, T. F. et al., Brain Research 985 (2003) 113-126. Insect cell paste was lysed and after centrifugation, the supernatant was chromatographed on Ni-NTA agarose (Qiagen) as described in Seeger, T. F. et al., Brain Research 985 (2003) 113-126. Ni-NTA agarose eluting fractions containing PDE4 were pooled, diluted with Q buffer A (20 mM Tris HCl pH 8, 5% glycerol, 1 mM TCEP) to reduce NaCl to ˜100 mM and loaded on a Source 15Q (GE Healthcare) column. After washing with Q buffer A/10% buffer B to baseline, PDE4D was eluted with a gradient from 10% to 60% of Buffer B (20 mM Tris HCl pH 8, 1 M NaCl, 5% glycerol, 1 mM TCEP). PDE4D fractions were analyzed by SDS-PAGE Coomassie blue staining, pooled based on purity, frozen and stored at −80° C.
as §3
On the technique in general: In a scintillation proximity assay essentially only radioactivity close to the scintillant gives light.

For a further experiment, the target named is Human PDE4C1 (Homo sapiens (Human), UniProt Q08493). Briefly: PDE4C1 Scintillation Proximity Assay (SPA), inhibition of enzyme activity. The note with it: Table 9, geometric mean of 2-9 determinations unless otherwise indicated, read-out: Human PDE4C FL. How it is done: as §1
Human PDE4C1, sequence (Q08493 2-712): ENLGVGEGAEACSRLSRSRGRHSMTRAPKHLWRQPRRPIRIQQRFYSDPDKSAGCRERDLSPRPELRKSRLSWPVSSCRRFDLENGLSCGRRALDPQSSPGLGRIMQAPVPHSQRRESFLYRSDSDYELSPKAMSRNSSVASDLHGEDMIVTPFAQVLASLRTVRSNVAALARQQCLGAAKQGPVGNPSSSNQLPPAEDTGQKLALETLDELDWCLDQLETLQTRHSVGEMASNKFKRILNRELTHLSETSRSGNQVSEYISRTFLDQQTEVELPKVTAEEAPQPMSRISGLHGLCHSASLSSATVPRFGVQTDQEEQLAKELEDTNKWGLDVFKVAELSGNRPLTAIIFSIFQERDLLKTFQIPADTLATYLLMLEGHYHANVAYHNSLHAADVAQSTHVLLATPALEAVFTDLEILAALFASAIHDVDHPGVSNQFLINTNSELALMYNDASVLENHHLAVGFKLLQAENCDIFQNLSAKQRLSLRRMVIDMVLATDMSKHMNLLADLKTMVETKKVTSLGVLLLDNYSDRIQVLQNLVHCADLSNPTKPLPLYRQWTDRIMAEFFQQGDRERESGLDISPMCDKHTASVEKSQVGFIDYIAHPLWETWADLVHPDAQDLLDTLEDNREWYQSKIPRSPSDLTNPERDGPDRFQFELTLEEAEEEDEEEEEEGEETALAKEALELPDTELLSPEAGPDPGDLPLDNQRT
as §2, with “PDE4C1” for “PDE4A3”
as §3

The target of the next experiment is human PDE4D3 (Homo sapiens (Human), UniProt Q08499). Briefly: PDE4D3 Scintillation Proximity Assay (SPA), inhibition of enzyme activity. Conditions: Table 9, geometric mean of 2-9 determinations unless otherwise indicated, read-out: Human PDE4D FL. The method, then: as §1
human PDE4D3, sequence (Q08499 186-808): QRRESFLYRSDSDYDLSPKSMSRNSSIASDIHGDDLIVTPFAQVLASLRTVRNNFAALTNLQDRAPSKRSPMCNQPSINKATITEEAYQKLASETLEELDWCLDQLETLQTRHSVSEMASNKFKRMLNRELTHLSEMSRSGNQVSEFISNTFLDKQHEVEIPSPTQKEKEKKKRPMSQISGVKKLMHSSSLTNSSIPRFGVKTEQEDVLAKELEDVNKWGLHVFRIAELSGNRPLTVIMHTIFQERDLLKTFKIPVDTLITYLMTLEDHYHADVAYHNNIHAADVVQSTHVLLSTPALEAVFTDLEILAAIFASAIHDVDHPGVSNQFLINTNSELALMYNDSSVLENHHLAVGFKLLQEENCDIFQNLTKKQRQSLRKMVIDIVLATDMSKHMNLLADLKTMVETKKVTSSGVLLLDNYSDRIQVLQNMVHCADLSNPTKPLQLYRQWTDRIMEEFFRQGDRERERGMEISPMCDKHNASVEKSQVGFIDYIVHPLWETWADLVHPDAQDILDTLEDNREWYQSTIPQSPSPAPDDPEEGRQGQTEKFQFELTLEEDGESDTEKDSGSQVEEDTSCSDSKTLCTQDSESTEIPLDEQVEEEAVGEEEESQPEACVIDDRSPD
A portion of the human PDE4D3 coding sequence (amino acids 50 to 672 from the sequence with accession number Q08499-2) was cloned into the baculovirus expression vector pFastBac (Invitrogen) engineered to include a C-terminal His6 affinity tag to aid in purification as described in Seeger, T. F. et al., Brain Research 985 (2003) 113-126. The recombinant Bacmid was isolated and used to transfect insect cells to generate a viral stock. To generate cell paste for purification, insect cells were infected and cells were harvested 72 hours after infection. Insect cell paste was lysed and after centrifugation, the supernatant was chromatographed on Ni-NTA agarose (Qiagen) as described in Seeger, T. F. et al., Brain Research 985 (2003) 113-126. Ni-NTA agarose eluting fractions containing PDE4 were pooled, diluted with Q Buffer A (50 mM Tris HCl pH 8, 4% glycerol, 100 mM NaCl, 1 mM TCEP, Protease inhibitors EDTA-free (Roche)) to reduce NaCl to ˜200 mM, and loaded on a Q Sepharose (GE Healthcare) column. After washing with Q buffer A to baseline, PDE4D was eluted with a gradient from 10% to 60% of Buffer B (50 mM Tris HCl pH 8, 1 M NaCl, 4% glycerol, 1 mM TCEP). PDE4D fractions were analyzed by SDS-PAGE Coomassie blue staining, pooled based on purity, frozen and stored at −80° C.
as §3

Human PDE4A3, sequence (P27815 other isoform, or with tags, fused parts or gaps): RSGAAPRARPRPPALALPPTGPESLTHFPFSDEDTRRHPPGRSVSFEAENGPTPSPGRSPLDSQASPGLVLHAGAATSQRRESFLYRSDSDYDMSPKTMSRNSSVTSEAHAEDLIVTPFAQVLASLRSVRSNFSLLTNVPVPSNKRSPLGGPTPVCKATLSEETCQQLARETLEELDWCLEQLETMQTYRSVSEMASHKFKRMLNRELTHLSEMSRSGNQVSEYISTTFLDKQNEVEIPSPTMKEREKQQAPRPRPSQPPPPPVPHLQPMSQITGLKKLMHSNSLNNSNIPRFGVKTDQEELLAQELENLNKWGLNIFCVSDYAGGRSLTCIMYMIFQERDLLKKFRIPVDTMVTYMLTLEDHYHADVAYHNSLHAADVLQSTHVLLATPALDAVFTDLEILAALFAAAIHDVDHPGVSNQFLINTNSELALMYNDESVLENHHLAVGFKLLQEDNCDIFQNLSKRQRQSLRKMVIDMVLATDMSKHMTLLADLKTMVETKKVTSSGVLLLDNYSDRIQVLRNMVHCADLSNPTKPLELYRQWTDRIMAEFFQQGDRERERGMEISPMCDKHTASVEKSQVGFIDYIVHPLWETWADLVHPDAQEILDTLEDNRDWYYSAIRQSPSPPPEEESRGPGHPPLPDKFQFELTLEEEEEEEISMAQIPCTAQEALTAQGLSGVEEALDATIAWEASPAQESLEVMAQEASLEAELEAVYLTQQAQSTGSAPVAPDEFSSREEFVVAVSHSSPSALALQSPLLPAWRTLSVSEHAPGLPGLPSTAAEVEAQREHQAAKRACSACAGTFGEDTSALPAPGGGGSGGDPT

`Cc1cc(C#N)c(F)cc1-c1c2c(n3c1C(=O)N(C1CC1)CC3)CCCO2` [Example 16, 4-(8-Cyclopropyl-9-oxo-3,4,6,7,8,9-hexahydro-2H-pyrano[2′,3′:4,5]pyrrolo[1,2-a]pyrazin-10-yl)-2-fluoro-5-methylbenzonitrile]: the IC50 at Human PDE4A3 worked out at 1.57 nM; on Human PDE4B1, 1.78 nM; at Human PDE4C1, 15.2 nM; at human PDE4D3, 45.5 nM.

Take `O=C1c2c(-c3ccc(Cl)cc3)c3nccnc3n2CCN1C1CC1` [Example 18, 10-(4-Chlorophenyl)-8-cyclopropyl-7,8-dihydropyrrolo[1,2-a:4,5-b′]dipyrazin-9(6H)-one]: the IC50 on Human PDE4A3 was 4.12 nM; at Human PDE4B1 it was 10.2 nM; on Human PDE4C1 it was 24.4 nM; on human PDE4D3 it was 345 nM.

Regarding `Cc1ccc(-c2c3n(c4cccnc24)CCN(C2CC2)C3=O)cc1` [Example 20, 8-Cyclopropyl-10-(4-methylphenyl)-7,8-dihydropyrido[2′,3′:4,5]pyrrolo[1,2-a]pyrazin-9(6H)-one], the IC50 at Human PDE4A3 was 2.52 nM; at Human PDE4B1 it was 4.88 nM; at Human PDE4C1 it was 11.5 nM; on human PDE4D3, 465 nM.

As to `Cc1ncc(-c2c3n(c4cccnc24)CCN(C2CC2)C3=O)cn1` [Example 21, 8-Cyclopropyl-10-(2-methylpyrimidin-5-yl)-7,8-dihydropyrido[2′,3′:4,5]pyrrolo[1,2-a]pyrazin-9(6H)-one], the IC50 at Human PDE4A3 amounted to 8.6 nM; on Human PDE4B1, 75.9 nM; at Human PDE4C1 it was 132 nM; on human PDE4D3, 4340 nM.

With `N#Cc1ccc(-c2c3n(c4cccnc24)CCN(C2CC2)C3=O)c(F)c1` [Example 22, 4-(8-Cyclopropyl-9-oxo-6,7,8,9-tetrahydropyrido[2′,3′:4,5]pyrrolo[1,2-a]pyrazin-10-yl)-3-fluorobenzonitrile], the IC50 on Human PDE4A3 came to 7.47 nM; at Human PDE4B1, 11.3 nM; on Human PDE4C1, 20.2 nM; on human PDE4D3, 872 nM.

For `O=C1c2c(-c3ccc(F)cc3)c3ncccc3n2CCN1C1CC1` [Example 23, 8-Cyclopropyl-10-(4-fluorophenyl)-7,8-dihydropyrido[2′,3′:4,5]pyrrolo[1,2-a]pyrazin-9(6H)-one], the IC50 at Human PDE4A3 worked out at 13 nM; on Human PDE4B1, 3.13 nM; at Human PDE4C1 it was 82 nM; at human PDE4D3, 321 nM.

As to `COc1c(F)cc(-c2c3n(c4cccnc24)CCN(C2CC2)C3=O)cc1F` [Example 24, 8-Cyclopropyl-10-(3,5-difluoro-4-methoxyphenyl)-7,8-dihydropyrido[2′,3′:4,5]pyrrolo[1,2-a]pyrazin-9(6H)-one], the IC50 at Human PDE4A3 worked out at 4.48 nM; at Human PDE4B1, 2.94 nM; at Human PDE4C1 it was 24.5 nM; at human PDE4D3, 125 nM.

For the compound `O=C1c2c(-c3ccc(Cl)cc3)c3ncncc3n2CCN1C1CC1` [Example 25, 10-(4-Chlorophenyl)-8-cyclopropyl-7,8-dihydropyrazino[1′,2′:1,5]pyrrolo[3,2-d]pyrimidin-9(6H)-one], the IC50 came out at 25 nM on Human PDE4A3, 48.2 nM on Human PDE4B1, 100 nM at Human PDE4C1 and 1780 nM at human PDE4D3.

For `N#Cc1ccc(-c2c3n(c4cccnc24)CCN(C2CC2)C3=O)cn1` [Example 26, 5-(8-Cyclopropyl-9-oxo-6,7,8,9-tetrahydropyrido[2′,3′:4,5]pyrrolo[1,2-a]pyrazin-10-yl)pyridine-2-carbonitrile], the IC50 on Human PDE4A3 worked out at 8.15 nM; on Human PDE4B1 it was 2.98 nM; on Human PDE4C1, 14.8 nM; on human PDE4D3 it was 138 nM.

With `O=C1c2c(-c3ccc(Cl)cc3)c3ncsc3n2CCN1C1CC1` [Example 27, 9-(4-Chlorophenyl)-7-cyclopropyl-6,7-dihydro[1,3]thiazolo[4′,5′:4,5]pyrrolo[1,2-a]pyrazin-8(5H)-one], the IC50 was found to be 2.28 nM on Human PDE4A3, 3.04 nM at Human PDE4B1, 9.03 nM on Human PDE4C1 and 434 nM at human PDE4D3.

As for `Cc1cc(C#N)c(F)cc1-c1c2n(c3scnc13)CCN(C1CC1)C2=O` [Example 28, 4-(7-Cyclopropyl-8-oxo-5,6,7,8-tetrahydro[1,3]thiazolo[4′,5′:4,5]pyrrolo[1,2-a]pyrazin-9-yl)-2-fluoro-5-methylbenzonitrile], the IC50 amounted to 3.92 nM on Human PDE4A3, 2.14 nM on Human PDE4B1, 21 nM on Human PDE4C1 and 85.7 nM at human PDE4D3.

Turning to `Cc1cc(Cl)c(F)cc1-c1c2c(n3c1C(=O)N(C1CC1)CC3)CCCO2` [Example 29, 10-(4-Chloro-5-fluoro-2-methylphenyl)-8-cyclopropyl-3,4,7,8-tetrahydro-2H-pyrano[2′,3′:4,5]pyrrolo[1,2-a]pyrazin-9(6H)-one], the IC50 on Human PDE4A3 was found to be 1 nM; on Human PDE4B1 it was 1 nM; on Human PDE4C1, 2.45 nM; on human PDE4D3, 12.7 nM.

With `O=C1c2c(-c3ccc(Cl)c(F)c3)c3ncccc3n2CCN1C1CC1` [Example 32, 10-(4-Chloro-3-fluorophenyl)-8-cyclopropyl-7,8-dihydropyrido[2′,3′:4,5]pyrrolo[1,2-a]pyrazin-9(6H)-one], the IC50 at Human PDE4A3 was under 0.45 nM; on Human PDE4B1 it was under 0.7 nM; at Human PDE4C1, 1.44 nM; at human PDE4D3, 9.07 nM.
